The source of these data is patent US7906156B2, “CB2 receptors blocks accumulation of human hepatic myofibroblasts: a novel antifibrogenic pathway in the liver” (priority 2003, dated 2011).

Series [1] deals with human hepatic myofibroblasts. The series is described as follows: cells. Type of series: cell-based. Conditions: for effect on the antiproliferative effect of THC: pretreatment before THC + PDGF-BB; for IC50 / maximal reduction of PDGF-BB-stimulated DNA synthesis / effect on DNA synthesis / growth: 20 ng/ml PDGF-BB; for IC50: 30 hrs, read-out: half maximal inhibition (IC50) of DNA synthesis; for maximal reduction of PDGF-BB-stimulated DNA synthesis: at 500 nM.

The subject of a further series is caspase-3. The series is described as follows: Caspase-3-like activity on cell lysates. Conditions: for effect on caspase-3 activation elicited by THC: pretreatment before THC.
Series [2] has as its system human hepatic myofibroblasts. The series is described as follows: Cell viability (MTS assay) / cytotoxicity of serum-deprived hepatic myofibroblasts. Type of series: cell-based. Conditions: for IC50: 16 hours, MTS assay, read-out: half maximal decrease in cell viability. The protocol:
Cell viability. […] CellTiter 96 AQueous One Solution reagent was added to each well and absorbance was recorded at 490 nm.

In the next series the test system is reactive oxygen species. The series can be described thus: Intracellular reactive oxygen species (DCFH-DA fluorescence). Type of series: cell-based, human.
Series [3] deals with human hepatic myofibroblasts. The series can be described thus: DNA laddering and DAPI nuclear morphology. Format: cell-based. As to the method: (A) Phase-contrast analysis (Magnification ×100). […] (C) Caspase-3-like activity.
Apoptosis assays. […] Nuclear morphology was assayed using DAPI staining.

For the next series, the system named is cAMP. The series can be described thus: cAMP levels in human hepatic myofibroblasts. Format: cell-based. Conditions: not shown.
Another series relates to COX-2. The series can be described thus: COX-2 protein induction (Western blot). Conditions: 8 h.
A further series deals with COX. The series is described as follows: COX activity (PGE2 released after arachidonic acid). Conditions: 1000 nM THC, 8 h.
Series [4] concerns the target T1, CB2 receptors (Homo sapiens, UniProt P34972). The series can be described thus: [35S]GTPγS binding assay, membranes of human hepatic myofibroblasts.
The target in series [5] is T1, CB2 receptors. The series is described as follows: [35S]GTPγS binding assay, membranes of CHO cells overexpressing CB2 receptors.
A further series addresses T2, CB1 receptors (Homo sapiens, UniProt P21554).
T2 construct: host or cells: CHO cells
Type of series: cell-based.

In series [6] the target is T1, CB2 receptors. The series can be described thus: forskolin-stimulated cAMP levels in CHO overexpressing CB2 receptors. Type of series: cell-based. More on the design: host or cells: CHO cells. Conditions: CHO overexpressing CB2, 100 nM, 10 min.

Counter-ions that a name gives are not always drawn. Residues, ends and D or L forms follow the SMILES beside them. *: point of attachment. Cbz = O=C(OCc1ccccc1)*; CH2F = FC*

T1 sequence (P34972 whole entry): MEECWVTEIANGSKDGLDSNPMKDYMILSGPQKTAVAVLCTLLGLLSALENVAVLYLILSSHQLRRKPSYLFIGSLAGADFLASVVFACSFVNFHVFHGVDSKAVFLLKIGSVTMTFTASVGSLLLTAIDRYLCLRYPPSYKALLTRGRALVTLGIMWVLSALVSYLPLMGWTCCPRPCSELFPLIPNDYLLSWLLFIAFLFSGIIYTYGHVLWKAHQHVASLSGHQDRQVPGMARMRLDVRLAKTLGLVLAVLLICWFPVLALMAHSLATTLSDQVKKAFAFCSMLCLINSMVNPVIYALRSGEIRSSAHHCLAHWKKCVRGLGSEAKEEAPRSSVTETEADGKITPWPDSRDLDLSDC
T2 sequence (P21554 whole entry): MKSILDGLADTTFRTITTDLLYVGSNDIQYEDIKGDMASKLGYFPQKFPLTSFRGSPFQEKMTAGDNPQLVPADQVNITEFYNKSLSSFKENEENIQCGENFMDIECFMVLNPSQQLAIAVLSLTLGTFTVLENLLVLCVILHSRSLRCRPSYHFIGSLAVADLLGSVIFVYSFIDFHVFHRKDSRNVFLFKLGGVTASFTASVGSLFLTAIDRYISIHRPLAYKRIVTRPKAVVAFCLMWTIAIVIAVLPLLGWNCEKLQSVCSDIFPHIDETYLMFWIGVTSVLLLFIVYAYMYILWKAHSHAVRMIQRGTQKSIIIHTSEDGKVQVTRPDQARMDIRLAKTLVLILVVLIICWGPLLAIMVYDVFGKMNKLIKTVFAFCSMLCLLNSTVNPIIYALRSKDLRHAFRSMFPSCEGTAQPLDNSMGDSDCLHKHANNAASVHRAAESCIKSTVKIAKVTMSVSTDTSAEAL

Turning to `[Cl-].[Mn+3].[O-]c1ccccc1C=NCCN=Cc1ccccc1[O-]` [EUK 8], the “effect on the antiproliferative effect of THC” value (“effect … of THC” below) in [1] is “did not affect”. Also, in the series on caspase-3, the “effect on caspase-3 activation elicited by THC” value is on record as “blunted”.

For the compound `CCCCCCC(C)(C)c1ccc([C@@H]2C[C@H](O)CC[C@H]2CCCO)c(O)c1` [CP 55940, (−)-cis-3-[2-Hydroxy-4-(1,1-dimethylheptyl)phenyl]-trans-4-(3-hydroxypropyl)cyclohexanol], in series [2] (serum-deprived cells), the “cytotoxic / apoptotic effect on hepatic myofibroblasts” value (“cytotoxic / apoptotic effect” for short) was “cytotoxic”.

Turning to `[2H]C([2H])([2H])CCCCc1cc(O)c2c(c1)OC(C)(C)C1CCC(C)=CC21` (stereo not drawn) [THC, 6a,7,8,10a-Tetrahydro-6,6,9-trimethyl-3-(pentyl-5,5,5-d3)-6H-dibenzo(b,d)pyran-1-ol], in [1] (Homo sapiens), the IC50 was 200 nM. The “maximal reduction of PDGF-BB-stimulated DNA synthesis” value in [1] was found to be 50%. Moreover, in series [2] (Homo sapiens, serum-deprived cells), the IC50 is 1500 nM. For the same compound, in series [2] (serum-deprived cells), the “concentration giving maximal decrease in cell survival” value is 2 µM and the “cytotoxic / apoptotic effect” value was “cytotoxic effects”. In addition, the “time to ROS production after exposure” value in the series with reactive oxygen species is at most 20 min. The “increase in production of intracellular reactive oxygen species” value in the series on reactive oxygen species (3 μM THC) is on record as 1.5 fold. Besides, in series [3] (4 μM THC), the “DNA laddering on agarose gel electrophoresis” value is listed as “dramatic DNA laddering” and the “nuclear morphology (DAPI staining)” value is listed as “condensed nuclei”. In addition, the “cAMP levels in response to compound” value with cAMP was “not raised”. Moreover, the “induction of COX-2” value in the series with COX-2 was “strong induction”. Moreover, in the series with caspase-3, the “time of peak caspase-3 activity” value was 4 to 6 h. For the same compound, in the series with caspase-3 (4 μM THC, 5 hr (FIG. 6C)), the “maximal increase of caspase-3 activity” value is recorded as 6.3±2 fold. The “maximal increase in caspase-3 activity” value with caspase-3 (time course, peak after 4-6 hr) came out at 6.7 fold. Moreover, the COX activity result in the series with COX is “stimulates COX activity”. In addition, the “concentration giving maximal effect on [35S]GTPγS binding” value at CB2 receptors [4] worked out at 100 nM. In addition, the “concentration giving maximal activation of [35S]GTPγS binding” value at CB2 receptors [5] is 10 nM.

Consider `Cc1c(C(=O)c2cccc3ccccc23)c2cccc3c2n1[C@H](CN1CCOCC1)CO3` [WIN-55.212-2, (R)-(+)-[2,3-Dihydro-5-methyl-3-(4-morpholinylmethyl)pyrrolo[1,2,3-de]-1,4-benzoxazin-6-yl]-1-naphthalenylmethanone mesylate], for which, in [2] (serum-deprived cells), the “cytotoxic / apoptotic effect” value was “cytotoxic”.

Regarding `CS(=O)(=O)Nc1ccc([N+](=O)[O-])cc1OC1CCCCC1` [NS-398, N-(2-cyclohexyloxy-4-nitrophenyl)methane sulfonamide], the “effect … of THC” value is given as “reduced” in [1] and “blunted” in [1] (listed as NS 398). Moreover, the “effect on cytotoxic effect / cell death triggered by THC” value in series [2] (pretreatment before THC) was “did not affect”. The “effect on caspase-3 activation elicited by THC” value in the series on caspase-3 was “did not affect”.

As for `CCCn1c(C)c(C(=O)c2cccc3ccccc23)c2ccccc21` [JWH-015, (2-Methyl-1-propyl-1H-indol-3-yl)-1-naphthalenylmethanone], in series [1], the “effect on DNA synthesis / growth” value is given as “reproduced”, the IC50 came out at 150 nM and the “maximal reduction of PDGF-BB-stimulated DNA synthesis” value was determined as 60%. In series [2] (serum-deprived cells), the “cytotoxic / apoptotic effect” value is listed as “apoptotic” and the IC50 worked out at 1000 nM. Moreover, the “cytotoxic / apoptotic effect” value in series [2] (serum-deprived cells, listed as JW-015) is given as “reproduced”.

As to `CCCCC/C=C\C/C=C\C/C=C\C/C=C\CCCC(=O)NCCCl` [ACEA, N-(2-Chloroethyl)-5Z,8Z,11Z,14Z-eicosatetraenamide], in series [1], the “effect on DNA synthesis / growth” value is given as “had no effect”. For the same compound, the “effect on forskolin-stimulated cAMP levels” value on CB1 receptors is “reduced”; at CB2 receptors [6], “had no effect”. The “cytotoxic / apoptotic effect” value in series [2] (serum-deprived cells) was “not cytotoxic”.

In the case of `CCCCC/C=C\C/C=C\C/C=C\C/C=C\CCCC(=O)NCCO` [anandamide, N-(2-Hydroxyethyl)-5Z,8Z,11Z,14Z-eicosatetraenamide], the “cytotoxic / apoptotic effect” value in series [2] (serum-deprived cells) is on record as “cytotoxic”.

Consider `CCCCCCC(C)(C)c1cc(O)c2c(c1)OC(C)(C)[C@@H]1CC=C(CO)C[C@@H]21` [HU-210, (6aR)-trans-3-(1,1-Dimethylheptyl)-6a,7,10,10a-tetrahydro-1-hydroxy-6,6-dimethyl-6H-dibenzo[b,d]pyran-9-methanol], for which the “cytotoxic / apoptotic effect” value in [2] (serum-deprived cells) was “cytotoxic”.

In the case of `COC(=O)CC(NC(=O)C(C)NC(=O)C(NC(=O)OCc1ccccc1)C(C)C)C(=O)CF` (stereo not drawn) [ZVAD-fmk, Z-val-Ala-Asp (OCH3)-Fluoromethyl ketone] (Cbz-Val-Ala-Asp(OMe)-CH2F; configuration not given here), the “effect on THC-induced DNA laddering” value in series [3] (50 μM ZVAD) is on record as “blocked”. Moreover, in the series on caspase-3, the “effect on caspase-3 activation elicited by THC” value is recorded as “totally blunted”.

For `Cc1c(C(=O)NN2CCCCC2)nn(-c2ccc(Cl)cc2Cl)c1-c1ccc(Cl)cc1` [SR 141716, N-pipéridino-5-(4-chlorophényl)-1-(2,4-dichlorophényl)-4-méthylpyrazole-3-carboxamide], in series [2], the “effect on apoptosis elicited by HU-210” value is given as “had no effect”.

For the compound `CC(C)Cc1ccc(C(C)C(=O)O)cc1` (stereo not drawn) [ibuprofen], in series [1], the “effect … of THC” value is reported as “blunted”. The “effect on caspase-3 activation elicited by THC” value in the series on caspase-3 was “did not affect”.

On to `CC(=O)N[C@@H](CS)C(=O)O` [NAC, N-Acetyl Cysteine], for which the “effect … of THC” value in series [1] is “did not affect”. The “effect on caspase-3 activation elicited by THC” value with caspase-3 is reported as “blunted”.

As to `C=C(C)[C@@H]1CCC(C)=C[C@H]1c1c(O)cc(CCCCC)cc1O` [cannabidiol], the “effect on DNA synthesis / growth” value in [1] is “reproduced”. For the same compound, the “cytotoxic / apoptotic effect” value in series [2] (serum-deprived cells) is recorded as “reproduced”.

For the compound “N-[1S)-endo-1,3,3,-trimethyl bicyclo[2.2.1]heptan-2-yl]-5-(choloro-3-methylphenyl)-1-(4-methyl-benzyl)-pyrazole-3-carboxamide [SR 144528]”, the “effect … of THC” value in series [1] is “strongly reduced”. Also, in [2], the “effect on apoptosis elicited by HU-210” value is listed as “prevented”. Besides, the “effect of compound alone on cell viability” value in [2] (without THC) is on record as “had no effect”. For the same compound, the “effect on caspase-3 activation elicited by THC” value with caspase-3 was “no activation of caspase-3”. Besides, in the series on caspase-3 (without THC), the “effect of compound alone on caspase-3-like activity” value is reported as “had no effect”.
